For one assay, the target named is T1, A. baumannii PBP1a (Acinetobacter baumannii, UniProt A0ABX6CK30).
T1 sequence (A0ABX6CK30 1-851): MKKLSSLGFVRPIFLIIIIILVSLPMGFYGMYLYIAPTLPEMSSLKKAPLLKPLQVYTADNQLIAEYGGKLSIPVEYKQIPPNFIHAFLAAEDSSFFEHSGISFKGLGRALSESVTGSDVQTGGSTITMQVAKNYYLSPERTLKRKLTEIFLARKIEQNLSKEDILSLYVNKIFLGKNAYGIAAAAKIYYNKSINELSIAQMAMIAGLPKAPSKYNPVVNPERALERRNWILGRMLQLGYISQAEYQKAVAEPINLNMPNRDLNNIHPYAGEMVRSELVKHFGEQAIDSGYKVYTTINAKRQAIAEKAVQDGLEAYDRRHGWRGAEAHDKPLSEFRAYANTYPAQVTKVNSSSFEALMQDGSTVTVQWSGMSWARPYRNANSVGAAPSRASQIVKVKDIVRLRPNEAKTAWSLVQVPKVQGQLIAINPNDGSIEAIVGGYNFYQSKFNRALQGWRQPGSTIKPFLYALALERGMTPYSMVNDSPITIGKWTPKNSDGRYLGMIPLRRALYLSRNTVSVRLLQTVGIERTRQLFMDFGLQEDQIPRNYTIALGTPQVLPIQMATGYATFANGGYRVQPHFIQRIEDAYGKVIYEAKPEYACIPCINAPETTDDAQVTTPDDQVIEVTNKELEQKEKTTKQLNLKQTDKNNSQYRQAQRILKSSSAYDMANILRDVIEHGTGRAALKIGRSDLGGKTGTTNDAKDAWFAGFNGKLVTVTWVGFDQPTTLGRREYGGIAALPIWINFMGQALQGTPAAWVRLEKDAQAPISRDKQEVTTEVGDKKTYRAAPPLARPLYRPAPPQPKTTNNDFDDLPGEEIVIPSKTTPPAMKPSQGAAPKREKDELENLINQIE
In words: Bocillin-FL competition binding via gel filtration, A. baumannii PBP1a. Conditions: competition binding assay using Bocillin-FL via gel filtration; read-out: A. baumannii PBP1a Potency. Put shortly: (§1)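 Competitive equilibrium binding with Bocillin-FL reporter: PBP pre-incubated with inhibitor dilutions, Bocillin-FL added, 15 min incubation. Labelled enzyme isolated by size-exclusion spin plates, fluorescence measured; EC50 obtained by fitting bound fraction against inhibitor concentration with a Hill-coefficient model.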
(In gel filtration, larger molecules generally elute earlier.)

In another assay the test system is B. pseudomallei Bp82. In words: microbe, parasite or virus in culture. It counts as cell-based. The note with it: Burkholderia pseudomallei, BP82, read-out: Minimum inhibitory concentration, B. pseudomallei Bp82.
The target of another assay is A. baumannii PBP2 (Acinetobacter baumannii, UniProt D0C8Z9). In words: Bocillin-FL competition binding via gel filtration, A. baumannii PBP2. The method, boiled down: as §1

The structures appear in SMILES notation. In brackets after ≈: the same amount, converted by molar mass. Some results are limits rather than exact numbers.

A. baumannii PBP2, sequence (D0C8Z9 whole entry): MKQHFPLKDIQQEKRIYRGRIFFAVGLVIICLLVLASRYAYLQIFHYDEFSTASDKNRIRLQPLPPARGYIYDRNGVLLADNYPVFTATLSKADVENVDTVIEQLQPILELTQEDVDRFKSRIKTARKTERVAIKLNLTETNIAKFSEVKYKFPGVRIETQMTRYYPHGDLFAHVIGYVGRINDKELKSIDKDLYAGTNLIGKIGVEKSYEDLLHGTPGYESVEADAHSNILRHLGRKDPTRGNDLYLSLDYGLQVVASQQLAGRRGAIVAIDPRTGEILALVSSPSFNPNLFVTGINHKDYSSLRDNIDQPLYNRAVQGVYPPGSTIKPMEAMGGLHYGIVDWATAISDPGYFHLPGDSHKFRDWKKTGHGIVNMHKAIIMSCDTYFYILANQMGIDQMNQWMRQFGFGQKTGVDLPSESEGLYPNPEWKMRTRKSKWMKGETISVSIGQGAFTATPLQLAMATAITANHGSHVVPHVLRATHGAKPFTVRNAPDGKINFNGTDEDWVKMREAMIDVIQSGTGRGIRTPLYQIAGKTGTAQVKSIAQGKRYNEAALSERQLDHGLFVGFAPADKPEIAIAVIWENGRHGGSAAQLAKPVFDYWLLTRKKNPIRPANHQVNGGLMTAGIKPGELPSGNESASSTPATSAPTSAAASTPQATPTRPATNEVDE

For `O=C(NCCCN1CCN(C(=O)NC(C(=O)N[C@H]2Cc3ccc(F)c(C(=O)O)c3OB2O)c2cc(F)c(O)c(O)c2Cl)C(=O)C1=O)c1ccc(O)cc1` (stereo partly drawn) [Example 203, (3R)-3-(2-(2-chloro-5-fluoro-3,4-dihydroxyphenyl)-2-(4-(3-(4-hydroxybenzamido)propyl)-2,3-dioxopiperazine-1-carboxamido)acetamido)-7-fluoro-2-hydroxy-3,4-dihydro-2H-benzo[e][1,2]oxaborinine-8-carboxylic acid], the EC50 is less than 10 µM at A. baumannii PBP1a and 10 to 50 µM at A. baumannii PBP2. In addition, the MIC in the assay with B. pseudomallei Bp82 was less than 1 µg/mL.
Taken in the same sequence, the figures for `O=C(NCCCN1CCN(C(=O)NC(C(=O)N[C@H]2Cc3ccc(F)c(C(=O)O)c3OB2O)c2cc(F)c(O)c(O)c2Cl)C(=O)C1=O)c1cccc(O)c1` (stereo partly drawn) [Example 204, (3R)-3-(2-(2-chloro-5-fluoro-3,4-dihydroxyphenyl)-2-(4-(3-(3-hydroxybenzamido)propyl)-2,3-dioxopiperazine-1-carboxamido)acetamido)-7-fluoro-2-hydroxy-3,4-dihydro-2H-benzo[e][1,2]oxaborinine-8-carboxylic acid] were 10 to 50 µM, 10 to 50 µM and less than 1 µg/mL.
With `O=C(NCCCN1CCN(C(=O)NC(C(=O)N[C@H]2Cc3ccc(F)c(C(=O)O)c3OB2O)c2cc(F)c(O)c(O)c2Cl)C(=O)C1=O)c1ccncc1` (stereo partly drawn) [Example 205, (3R)-3-(2-(2-chloro-5-fluoro-3,4-dihydroxyphenyl)-2-(4-(3-(isonicotinamido)propyl)-2,3-dioxopiperazine-1-carboxamido)acetamido)-7-fluoro-2-hydroxy-3,4-dihydro-2H-benzo[e][1,2]oxaborinine-8-carboxylic acid], the EC50 at A. baumannii PBP1a was in the range of 50 to 250 µM; on A. baumannii PBP2, 10 to 50 µM. For the same compound, the MIC in the assay with B. pseudomallei Bp82 was less than 1 µg/mL.
Regarding `CN(CCN1CCN(C(=O)N[C@@H](C(=O)N[C@H]2Cc3ccc(F)c(C(=O)O)c3OB2O)c2cc(F)c(O)c(O)c2Cl)C(=O)C1=O)Cc1ccc(N)nc1` [Example 209, (R)-3-((R)-2-(4-(2-(((6-aminopyridin-3-yl)methyl)(methyl)amino)ethyl)-2,3-dioxopiperazine-1-carboxamido)-2-(2-chloro-5-fluoro-3,4-dihydroxyphenyl)acetamido)-7-fluoro-2-hydroxy-3,4-dihydro-2H-benzo[e][1,2]oxaborinine-8-carboxylic acid], the EC50 on A. baumannii PBP1a was 10 to 50 µM. In the assay with B. pseudomallei Bp82, the MIC is less than 1 µg/mL.
`O=C(NCCN1CCN(C(=O)NC(C(=O)N[C@H]2Cc3ccc(F)c(C(=O)O)c3OB2O)c2cc(F)c(O)c(O)c2Cl)C(=O)C1=O)c1ccc(O)cc1` (stereo partly drawn) [Example 214, (3R)-3-(2-(2-chloro-5-fluoro-3,4-dihydroxyphenyl)-2-(4-(2-(4-hydroxybenzamido)ethyl)-2,3-dioxopiperazine-1-carboxamido)acetamido)-7-fluoro-2-hydroxy-3,4-dihydro-2H-benzo[e][1,2]oxaborinine-8-carboxylic acid]: the EC50 at A. baumannii PBP1a and on A. baumannii PBP2 was 10 to 50 µM each time. Besides, the MIC in the assay with B. pseudomallei Bp82 lay in the range of 2 to 4 µg/mL (≈ 2.68 to 5.36 µM).
For `O=C(NCCN1CCN(C(=O)NC(C(=O)N[C@H]2Cc3ccc(F)c(C(=O)O)c3OB2O)c2cc(F)c(O)c(O)c2Cl)C(=O)C1=O)c1ccncc1` (stereo partly drawn) [Example 216, (3R)-3-(2-(2-chloro-5-fluoro-3,4-dihydroxyphenyl)-2-(4-(2-(isonicotinamido)ethyl)-2,3-dioxopiperazine-1-carboxamido)acetamido)-7-fluoro-2-hydroxy-3,4-dihydro-2H-benzo[e][1,2]oxaborinine-8-carboxylic acid], the EC50 at A. baumannii PBP1a and at A. baumannii PBP2 was 10 to 50 µM in each case. Moreover, the MIC with B. pseudomallei Bp82 is less than 1 µg/mL.
`O=C(NCCN1CCN(C(=O)N[C@@H](C(=O)N[C@H]2Cc3ccc(F)c(C(=O)O)c3OB2O)c2cc(F)c(O)c(O)c2Cl)C(=O)C1=O)Nc1cccnc1` [Example 222, (R)-3-((R)-2-(2-chloro-5-fluoro-3,4-dihydroxyphenyl)-2-(2,3-dioxo-4-(2-(3-(pyridin-3-yl)ureido)ethyl)piperazine-1-carboxamido)acetamido)-7-fluoro-2-hydroxy-3,4-dihydro-2H-benzo[e][1,2]oxaborinine-8-carboxylic acid]: the EC50 at A. baumannii PBP1a and on A. baumannii PBP2 was 10 to 50 µM in each case. Also, the MIC in the assay with B. pseudomallei Bp82 was less than 1 µg/mL.
On to `CN(CCN1CCN(C(=O)NC(C(=O)N[C@H]2Cc3ccc(F)c(C(=O)O)c3OB2O)c2cc(F)c(O)c(O)c2Cl)C(=O)C1=O)S(=O)(=O)c1ccc(C(N)=O)cc1` (stereo partly drawn) [Example 223, (3R)-3-(2-(4-(2-((4-carbamoyl-N-methylphenyl)sulfonamido)ethyl)-2,3-dioxopiperazine-1-carboxamido)-2-(2-chloro-5-fluoro-3,4-dihydroxyphenyl)acetamido)-7-fluoro-2-hydroxy-3,4-dihydro-2H-benzo[e][1,2]oxaborinine-8-carboxylic acid], for which the EC50 on A. baumannii PBP1a was less than 10 µM. In the assay on B. pseudomallei Bp82, the MIC is less than 1 µg/mL.
With `CN(CCN1CCN(C(=O)NC(C(=O)N[C@H]2Cc3ccc(F)c(C(=O)O)c3OB2O)c2cc(F)c(O)c(O)c2Cl)C(=O)C1=O)S(=O)(=O)c1cccc(C(N)=O)c1` (stereo partly drawn) [Example 224, (3R)-3-(2-(4-(2-((3-carbamoyl-N-methylphenyl)sulfonamido)ethyl)-2,3-dioxopiperazine-1-carboxamido)-2-(2-chloro-5-fluoro-3,4-dihydroxyphenyl)acetamido)-7-fluoro-2-hydroxy-3,4-dihydro-2H-benzo[e][1,2]oxaborinine-8-carboxylic acid], at A. baumannii PBP1a, the EC50 is less than 10 µM. The MIC with B. pseudomallei Bp82 was less than 1 µg/mL.
For `CN(CCN1CCN(C(=O)N[C@@H](C(=O)N[C@H]2Cc3ccc(F)c(C(=O)O)c3OB2O)c2cc(F)c(O)c(O)c2Cl)C(=O)C1=O)Cc1cccc(C(N)=O)c1` [Example 225, (R)-3-((R)-2-(4-(2-((3-carbamoylbenzyl)(methyl)amino)ethyl)-2,3-dioxopiperazine-1-carboxamido)-2-(2-chloro-5-fluoro-3,4-dihydroxyphenyl)acetamido)-7-fluoro-2-hydroxy-3,4-dihydro-2H-benzo[e][1,2]oxaborinine-8-carboxylic acid], on A. baumannii PBP1a, the EC50 lay in the range of 10 to 50 µM. The MIC in the assay on B. pseudomallei Bp82 is less than 1 µg/mL.
Turning to `CN(CCN1CCN(C(=O)N[C@@H](C(=O)N[C@H]2Cc3ccc(F)c(C(=O)O)c3OB2O)c2cc(F)c(O)c(O)c2Cl)C(=O)C1=O)Cc1ccc(C(N)=O)cc1` [Example 226, (R)-3-((R)-2-(4-(2-((4-carbamoylbenzyl)(methyl)amino)ethyl)-2,3-dioxopiperazine-1-carboxamido)-2-(2-chloro-5-fluoro-3,4-dihydroxyphenyl)acetamido)-7-fluoro-2-hydroxy-3,4-dihydro-2H-benzo[e][1,2]oxaborinine-8-carboxylic acid], at A. baumannii PBP1a, the EC50 was in the range of 10 to 50 µM. Also, the MIC in the assay on B. pseudomallei Bp82 was less than 1 µg/mL.
Regarding `O=C(NCCCN1CCN(C(=O)NC(C(=O)N[C@H]2Cc3ccc(F)c(C(=O)O)c3OB2O)c2cc(F)c(O)c(O)c2Cl)C(=O)C1=O)Nc1ccc(O)cc1` (stereo partly drawn) [Example 227, (3R)-3-(2-(2-chloro-5-fluoro-3,4-dihydroxyphenyl)-2-(4-(3-(3-(4-hydroxyphenyl)ureido)propyl)-2,3-dioxopiperazine-1-carboxamido)acetamido)-7-fluoro-2-hydroxy-3,4-dihydro-2H-benzo[e][1,2]oxaborinine-8-carboxylic acid], the EC50 at A. baumannii PBP1a and on A. baumannii PBP2 was 10 to 50 µM each time. Further, the MIC with B. pseudomallei Bp82 was less than 1 µg/mL.
For the compound `O=C(NCCN1CCN(C(=O)NC(C(=O)N[C@H]2Cc3ccc(F)c(C(=O)O)c3OB2O)c2cc(F)c(O)c(O)c2Cl)C1=O)c1nccs1` (stereo partly drawn) [Example 247, (3R)-3-(2-(2-chloro-5-fluoro-3,4-dihydroxyphenyl)-2-(2-oxo-3-(2-(thiazole-2-carboxamido)ethyl)imidazolidine-1-carboxamido)acetamido)-7-fluoro-2-hydroxy-3,4-dihydro-2H-benzo[e][1,2]oxaborinine-8-carboxylic acid], the MIC with B. pseudomallei Bp82 is less than 1 µg/mL. The EC50 on A. baumannii PBP2 lay within 10 to 50 µM.
In the case of `O=C(NCCN1CCN(C(=O)NC(C(=O)N[C@H]2Cc3ccc(F)c(C(=O)O)c3OB2O)c2cc(F)c(O)c(O)c2Cl)C1=O)Nc1cccc(O)c1` (stereo partly drawn) [Example 249, (3R)-3-(2-(2-chloro-5-fluoro-3,4-dihydroxyphenyl)-2-(3-(2-(3-(3-hydroxyphenyl)ureido)ethyl)-2-oxoimidazolidine-1-carboxamido)acetamido)-7-fluoro-2-hydroxy-3,4-dihydro-2H-benzo[e][1,2]oxaborinine-8-carboxylic acid], the EC50 at A. baumannii PBP1a lay in the range of 10 to 50 µM. In addition, the MIC in the assay on B. pseudomallei Bp82 is less than 1 µg/mL.

Source of the values: patent US20240270762A1, “PENICILLIN-BINDING PROTEIN INHIBITORS” (priority 2021, published 2024).
